What was measured:
[1] = Oral bioavailability in cynomolgus monkey at 3 mg/kg administered as single dose measured up to 24 hrs by HPLC analysis; assay type: ADME, organism-based, Macaca fascicularis; conditions: in vivo
[2] = Intrinsic clearance in dog hepatocytes; assay type: ADME, cell-based, Canis lupus familiaris, Hepatocyte; conditions: read-out: CLH
[3] = Intrinsic clearance in male rat hepatocytes; assay type: ADME, cell-based, Hepatocyte; conditions: read-out: CLH
[4] = Volume of distribution at steady state in mouse at 3 mg/kg, po administered as single dose measured up to 24 hrs by HPLC analysis; assay type: ADME, organism-based; conditions: in vivo
[5] = Clearance in mouse at 3 mg/kg, po administered as single dose measured up to 24 hrs by HPLC analysis; assay type: ADME, organism-based; conditions: in vivo
[6] = Intrinsic clearance in female rat hepatocytes; assay type: ADME, cell-based, Hepatocyte; conditions: read-out: CLH
Psoas muscle [7] = assay: Activation of fast twitch skeletal muscle in rabbit psoas muscle myofibrils by measuring increase in myofibril ATPase activity at 25% calcium concentration; assay type: functional; conditions: Oryctolagus cuniculus
[8] = Plasma protein binding in male rat assessed as unbound fraction; assay type: ADME, cell-free
[9] = Efflux ratio of apparent permeability in human Caco-2 cells; assay type: ADME, cell-based
[10] = Plasma protein binding in human assessed as unbound fraction; assay type: ADME, cell-free
[11] = Metabolic stability in human liver microsomes assessed as intrinsic clearance measured after 90 mins by HPLC/MS/MS analysis; assay type: ADME, Microsome; conditions: read-out: CLH
[12] = Volume of distribution at steady state in cynomolgus monkey at 3 mg/kg, po administered as single dose measured up to 24 hrs by HPLC analysis; assay type: ADME, organism-based, Macaca fascicularis; conditions: in vivo
[13] = Intrinsic clearance in monkey hepatocytes; assay type: ADME, cell-based, Macaca mulatta, Hepatocyte; conditions: rhesus monkey, read-out: CLH
[14] = Clearance in Beagle dog at 3 mg/kg, po administered as single dose measured up to 24 hrs by HPLC analysis; assay type: ADME, organism-based, Canis lupus familiaris; conditions: in vivo
[15] = Volume of distribution at steady state in male Sprague-Dawley rat at 3 mg/kg, po administered as single dose measured up to 24 hrs by HPLC analysis; assay type: ADME, organism-based; conditions: in vivo
[16] = Drug distribution in Sprague-Dawley rat Soleus muscle to blood ratio at 100 mg/kg, po by HPLC analysis; assay type: ADME, organism-based
[17] = Oral bioavailability in Beagle dog at 3 mg/kg administered as single dose measured up to 24 hrs by HPLC analysis; assay type: ADME, organism-based, Canis lupus familiaris; conditions: in vivo
[18] = biological target: T1, Nuclear receptor subfamily 1 group I member 2 (Homo sapiens, UniProt O75469); assay: Transactivation of human PXR transfected in DPX2 cells assessed as CYP3A4 induction at 10 uM by luciferase reporter gene assay; assay type: ADME, cell-based; conditions: dpx2, 10 µM
T1 sequence (O75469 whole entry): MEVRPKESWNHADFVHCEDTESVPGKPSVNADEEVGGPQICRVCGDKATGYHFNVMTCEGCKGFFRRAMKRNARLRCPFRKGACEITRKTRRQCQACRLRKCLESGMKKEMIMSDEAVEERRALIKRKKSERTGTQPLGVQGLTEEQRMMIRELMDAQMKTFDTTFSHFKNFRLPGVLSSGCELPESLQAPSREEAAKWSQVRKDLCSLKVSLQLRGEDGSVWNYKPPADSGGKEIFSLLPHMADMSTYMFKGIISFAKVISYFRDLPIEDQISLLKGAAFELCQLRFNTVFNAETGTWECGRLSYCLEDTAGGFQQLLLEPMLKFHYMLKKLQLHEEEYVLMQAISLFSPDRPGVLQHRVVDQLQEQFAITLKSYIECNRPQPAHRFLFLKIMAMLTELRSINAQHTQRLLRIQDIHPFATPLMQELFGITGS

[19] = Intrinsic clearance in human hepatocytes; assay type: ADME, cell-based, Hepatocyte; conditions: read-out: CLH
[20] = Drug distribution in Sprague-Dawley rat brain to blood ratio at 100 mg/kg, po by HPLC analysis; assay type: ADME, organism-based
[21] = Plasma protein binding in monkey assessed as unbound fraction; assay type: ADME, cell-free, Macaca mulatta; conditions: rhesus monkey
[22] = Oral bioavailability in female Sprague-Dawley rat at 3 mg/kg administered as single dose measured up to 24 hrs by HPLC analysis; assay type: ADME, organism-based; conditions: in vivo
[23] = test system: Extensor digitorum longus; assay: Increase in muscle tension in rat extensor digitorum longus muscle rat model assessed as free plasma concentration to increase muscle tension at subtetanic nerve stimulation rate of 30 Hz; assay type: functional, tissue-based
[24] = Metabolic stability in monkey liver microsomes assessed as intrinsic clearance measured after 90 mins by HPLC/MS/MS analysis; assay type: ADME, Macaca mulatta, Microsome; conditions: rhesus monkey, read-out: CLH
[25] = Clearance in female Sprague-Dawley rat at 3 mg/kg, po administered as single dose measured up to 24 hrs by HPLC analysis; assay type: ADME, organism-based; conditions: in vivo
[26] = Metabolic stability in female rat liver microsomes assessed as intrinsic clearance measured after 90 mins by HPLC/MS/MS analysis; assay type: ADME, Microsome; conditions: read-out: CLH
[27] = Metabolic stability in dog liver microsomes assessed as intrinsic clearance measured after 90 mins by HPLC/MS/MS analysis; assay type: ADME, Canis lupus familiaris, Microsome; conditions: read-out: CLH
[28] = Volume of distribution at steady state in Beagle dog at 3 mg/kg, po administered as single dose measured up to 24 hrs by HPLC analysis; assay type: ADME, organism-based, Canis lupus familiaris; conditions: in vivo
[29] = Drug distribution in Sprague-Dawley rat extensor digitorum longus to blood ratio at 100 mg/kg, po by HPLC analysis; assay type: ADME, organism-based
[30] = Plasma protein binding in female rat assessed as unbound fraction; assay type: ADME, cell-free
[31] = Metabolic stability in male rat liver microsomes assessed as intrinsic clearance measured after 90 mins by HPLC/MS/MS analysis; assay type: ADME, Microsome; conditions: read-out: CLH
[32] = Plasma protein binding in dog assessed as unbound fraction; assay type: ADME, cell-free, Canis lupus familiaris
[33] = Oral bioavailability in mouse at 3 mg/kg administered as single dose measured up to 24 hrs by HPLC analysis; assay type: ADME, organism-based; conditions: in vivo
[34] = Volume of distribution at steady state in female Sprague-Dawley rat at 3 mg/kg, po administered as single dose measured up to 24 hrs by HPLC analysis; assay type: ADME, organism-based; conditions: in vivo
[35] = Clearance in male Sprague-Dawley rat at 3 mg/kg, po administered as single dose measured up to 24 hrs by HPLC analysis; assay type: ADME, organism-based; conditions: in vivo
[36] = Drug distribution in Sprague-Dawley rat plasma to blood ratio at 100 mg/kg, po by HPLC analysis; assay type: ADME, organism-based; conditions: in vivo
[37] = Clearance in cynomolgus monkey at 3 mg/kg, po administered as single dose measured up to 24 hrs by HPLC analysis; assay type: ADME, organism-based, Macaca fascicularis; conditions: in vivo
Psoas muscle [38] = assay: Increase in psoas muscle force in rabbit skinned single fiber preparation at a calcium concentration that produces a force increase that is 25% of the maximum response in a control preparation by skinned fast skeletal muscle fiber assay; assay type: functional; conditions: Oryctolagus cuniculus
hERG (KCNH2) = hERG (KCNH2) (Homo sapiens, UniProt Q12809); assay: Displacement of [3H]astemizole from human ERG expressed in HEK293 cells at 100 uM relative to control; assay type: cell-based; conditions: HEK293 cells that express hERG, probe [3H]astemizole
hERG (KCNH2), sequence (Q12809 whole entry): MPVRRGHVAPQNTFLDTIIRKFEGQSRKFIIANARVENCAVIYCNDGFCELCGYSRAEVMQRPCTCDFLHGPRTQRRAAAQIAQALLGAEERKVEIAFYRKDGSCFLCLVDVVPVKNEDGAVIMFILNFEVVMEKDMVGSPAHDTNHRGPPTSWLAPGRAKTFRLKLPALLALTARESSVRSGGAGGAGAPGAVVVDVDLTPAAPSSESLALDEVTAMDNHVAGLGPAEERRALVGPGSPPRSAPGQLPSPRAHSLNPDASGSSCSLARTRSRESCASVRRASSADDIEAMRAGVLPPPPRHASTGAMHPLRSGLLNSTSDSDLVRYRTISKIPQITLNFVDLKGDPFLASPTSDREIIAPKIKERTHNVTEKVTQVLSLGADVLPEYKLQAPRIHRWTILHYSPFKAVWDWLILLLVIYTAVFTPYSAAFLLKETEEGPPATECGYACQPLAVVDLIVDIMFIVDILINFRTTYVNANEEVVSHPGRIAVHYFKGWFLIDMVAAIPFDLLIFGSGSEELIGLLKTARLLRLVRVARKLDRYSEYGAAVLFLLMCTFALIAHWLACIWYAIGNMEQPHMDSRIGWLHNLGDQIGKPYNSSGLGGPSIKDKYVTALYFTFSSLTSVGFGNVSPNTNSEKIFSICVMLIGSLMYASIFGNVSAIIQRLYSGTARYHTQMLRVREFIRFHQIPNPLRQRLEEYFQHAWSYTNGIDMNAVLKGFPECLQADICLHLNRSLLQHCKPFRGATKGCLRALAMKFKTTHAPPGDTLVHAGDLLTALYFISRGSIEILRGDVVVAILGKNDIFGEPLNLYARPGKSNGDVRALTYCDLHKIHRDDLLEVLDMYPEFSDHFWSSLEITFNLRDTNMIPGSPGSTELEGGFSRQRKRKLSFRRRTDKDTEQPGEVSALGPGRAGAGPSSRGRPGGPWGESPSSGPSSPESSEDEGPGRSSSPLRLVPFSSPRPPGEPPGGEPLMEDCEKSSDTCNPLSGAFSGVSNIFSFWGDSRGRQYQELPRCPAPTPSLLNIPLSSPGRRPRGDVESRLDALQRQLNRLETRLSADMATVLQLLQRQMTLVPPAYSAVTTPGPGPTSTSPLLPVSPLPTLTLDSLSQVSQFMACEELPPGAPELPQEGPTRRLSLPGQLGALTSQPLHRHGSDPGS

## NC(=O)c1ccn(-c2cnc(NC[C@]3(c4ncccc4F)C[C@H](F)C3)nc2)c1 [RELDESEMTIV]
[1]
  bioavailability: 26%
[2]
  CLint scaled: 37 mL/min/kg
[3]
  CLint scaled: 56 mL/min/kg
[4]
  Vdss: 3.3 L/kg
[5]
  CL/F: 86 mL/min/kg
[6]
  CLint scaled: 217 mL/min/kg
Psoas muscle [7]
  EC40: 600 nM
[8]
  fraction unbound: 0.5
[9]
  efflux ratio: 3.1
[10]
  fraction unbound: 0.49
[11]
  CLint scaled: < 14 mL/min/kg
[12]
  Vdss: 1.3 L/kg
[13]
  CLint scaled: 23 mL/min/kg
[14]
  CL/F: 22 mL/min/kg
[15]
  Vdss: 2.6 L/kg
[16]
  Kp: 0.77
[17]
  bioavailability: 25%
[18]
  Activity: 18%
[19]
  CLint scaled: < 14 mL/min/kg
[20]
  Kp: 0.063
[21]
  fraction unbound: 0.49
[22]
  bioavailability: 45%
[23]
  EC50: 38000 nM
[24]
  CLint scaled: 18 mL/min/kg
[25]
  CL/F: 24 mL/min/kg
[26]
  CLint scaled: 15 mL/min/kg
[27]
  CLint scaled: 11 mL/min/kg
[28]
  Vdss: 1.9 L/kg
[29]
  Kp: 0.85
[30]
  fraction unbound: 0.5
[31]
  CLint scaled: 15 mL/min/kg
[32]
  fraction unbound: 0.5
[33]
  bioavailability: 47%
[34]
  Vdss: 1.3 L/kg
[35]
  CL/F: 74 mL/min/kg
[36]
  Ratio: 1
[37]
  CL/F: 13 mL/min/kg
Psoas muscle [38]
  EC30: 800 nM
hERG (KCNH2)
  inhibition at 100 µM: 33%
